Assays:
[1] = test system: benzodiazepine site of GABAA; assay: Binding assay, benzodiazepine site of GABAA (binding assay 1: rat brain, (3H)-flunitrazepam; binding assay 2: bovine hippocampal membranes, [3H]-RY80); settings: radioligand binding; for % Inhibition at 0.1 μM: 0.1 μM test compound; for % Inhibition at 10 μM: 10 μM test compound
In short: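 Assay 1: rat whole-brain (minus cerebellum) membranes in Na–K phosphate pH 7.4, 1 nM (3H)-flunitrazepam, 60 min at 25° C., ± 30 μM GABA; nonspecific with 10 μM diazepam. Assay 2: bovine hippocampal membranes, 0.8 nM [3H]-RY80 in 50 mM Tris-Citrate pH 7.8/200 mM NaCl, 60 min at 0-4° C.; nonspecific with 0.5 μM L-655,708. Filtration read-out.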

GABAA receptors = assay: Electrophysiology assay, two-electrode voltage clamp in Xenopus oocytes expressing GABAA receptors; format: cell-based; settings: GABA EC10, screening concentration of 10 μM, subunit combination not stated
Description: mRNA was prepared from lyophilized plasmid pellets containing cDNA inserts encoding the specific GABAA receptor subunit. cDNAs encoding the α2, α3, and γ3 subunits were subcloned into pBluescript, SK^−. cDNAs encoding the α1 and α5 subunits were subcloned into prC while cDNA encoding the β2 subunit was subcloned into pcDNA1. The cDNA construct encoding the γ2s subunit is in the pGH19 expression construct. Overnight cultures of transformed DH5a bacterial cells were performed to grow sufficient quantities for maxiprep isolation of the plasmid cDNA. The resulting plasmid cDNA was linearized by digestion with an appropriate restriction enzyme that cleaves distal to the cDNA insert (XbaI for α1,2, β2, and γ3 or NotI for α3,5 and γ2, respectively). Following digestion, plasmid cDNA was treated with proteinase K and extracted with phenol/chloroform/isoamyl alcohol, followed by ethanol precipitation. cDNA quality was assessed by agarose-gel electrophoresis (1.5% agarose gel). Samples were stored at −20° C. until use. In vitro transcription was performed with T7 RNA polymerase. mRNA was then stored at −80° C. until use. Plasmids were linearized with appropriate restriction enzymes before in vitro transcription using the Message Machine kit (Ambion, Austin, Tex.).
GABAA Receptor Expression in Xenopus oocytes.
GABAA receptor expression in Xenopus oocytes: Following 45 min of 0.15% Tricaine anesthesia, an ovarian section containing the follicular oocytes was removed from the frog through a lateral abdominal incision. Oocytes were immediately placed in a calcium-free solution (NaCl 96 mM, MgCl2 1 mM, KCl 2 mM, Hepes 50 mM, pyruvate 2.5 mM, gentamycin 100 μg/mL, penicillin-streptomycin 50 U/mL, pH 7.4). Following 1.5-2 hour incubation in 0.2% collagenase (type II, Sigma Chemical Co., St. Louis, Mo.) at room temperature, individual Dumont stage V and VI oocytes were transferred to an incubator and maintained overnight in Barth's solution (NaCl 84 mM, NaHCO3 2.4 mM, MgSO4 0.82 mM, KCl 1 mM, Ca(NO3)2 0.33 mM, CaCl2 0.41 mM, Tris/HCl 7.5 mM, pyruvate 2.5 mM, gentamycin 50 μg/mL, penicillin-streptomycin, 100 units/mL, pH 7.4) at 18-20° C. and used for experiments 1-5 days post-injection. Oocytes were injected solution using an electronic microinjector (Drummond, Broomall, Pa.) with 50 nL of RNA containing 0.3-0.5 ng of each subunit RNA in a 1:1:1 ratio. The injected oocytes were used for experiments after 1-5 days of incubation in Barth's solution at 18-20° C.
Measurements of ion currents from oocytes expressing GABAA receptors were performed using a Warner two-electrode voltage-clamp amplifier (Warner Instruments, Inc., Foster City, Calif.) (Park-Chung, M., et al. (1999) Brain Res. 830: 72-87 incorporated herein in its entirety). Microelectrodes were fabricated from borosilicate glass capillaries with a programmed pipette puller (Sutter Instrument Co., Calif.). Microelectrode resistance was 1-3 MΩ when filled with 3 M KCl. The oocyte recording chamber was continuously perfused with Ringer solution. Oocytes were clamped at a holding potential of −70 mV during data acquisition. The membrane current was filtered at 10 Hz and sampled at 100 Hz. Compounds were applied by a gravity-driven external perfusion system. The working volume of the recording chamber was 30 μL and the rate of the perfusion was approximately 50 μL/sec. Compound application was 10-20 sec followed by a 90 sec wash. Data acquisition and external perfusion was computer controlled by custom-developed software. All experiments were performed at room temperature (22-24° C.). Dose-response data from each oocyte were fitted to the Hill equation by non-linear regression using the equation: IGABA=Emax/(1+(EC50/c)^n^H)
Emax is the maximum response, EC50 is the concentration producing 50% of the maximal response, nH is the Hill coefficient and c is the concentration of agonist. […]

SMILES | % Inhibition at 0.1 μM [1] | % Inhibition at 10 μM [1] | EP Modulation (GABAA receptors)
CN(C)CCNC(=O)n1ncc2c3nn(-c4ccccc4)c(=O)c-3c[nH]c21 [Compound 7a, N-(2-(dimethylamino)ethyl)-3-oxo-2-phenyl-2,3-dihydrodipyrazolo[3,4-b:3′,4′-d]pyridine-6(5H)-carboxamide] | C (C indicates % inhibition <20%) | B (B indicates % inhibition <80% and >20%) | E (E indicates negative modulation <20%)
O=C(NCC(F)(F)F)n1ncc2c3nn(-c4ccccc4)c(=O)c-3c[nH]c21 [Compound 7b, 3-oxo-2-phenyl-N-(2,2,2-trifluoroethyl)-2,3-dihydrodipyrazolo[3,4-b:3′,4′-d]pyridine-6(5H)-carboxamide] | B (B indicates % inhibition <80% and >20%) | A (A indicates % inhibition >80%) | D (D indicates negative modulation >20%)
CC(C)N1CCN(C(=O)n2ncc3c4nn(-c5ccccc5)c(=O)c-4c[nH]c32)CC1 [Compound 7d, 6-(4-isopropylpiperazine-1-carbonyl)-2-phenyl-5,6-dihydrodipyrazolo[3,4-b:3′,4′-d]pyridin-3(2H)-one] | C (C indicates % inhibition <20%) | C (C indicates % inhibition <20%) | Positive
CCNC(=O)n1cc2[nH]cc3c(=O)n(-c4ccccc4)nc-3c2c1 [Compound 13b, N-Ethyl-3-oxo-2-phenyl-2,3-dihydropyrazolo[3,4-d]pyrrolo[3,4-b]pyridine-7(5H)-carboxamide] | A (A indicates % inhibition >80%) | A (A indicates % inhibition >80%) | D (D indicates negative modulation >20%)
CCNC(=O)n1cc2[nH]cc3c(=O)n(-c4ccccc4F)nc-3c2c1 [Compound 13d, N-Ethyl-2-(2-fluorophenyl)-3-oxo-2,3-dihydropyrazolo[3,4-d]pyrrolo[3,4-b]pyridine-7(5H)-carboxamide] | B (B indicates % inhibition <80% and >20%) | A (A indicates % inhibition >80%) | D (D indicates negative modulation >20%)
CCCCNC(=O)n1cc2[nH]cc3c(=O)n(-c4ccccc4F)nc-3c2c1 [Compound 13e, N-butyl-2-(2-fluorophenyl)-3-oxo-2,3-dihydropyrazolo[3,4-d]pyrrolo[3,4-b]pyridine-7(5H)-carboxamide] | B (B indicates % inhibition <80% and >20%) | A (A indicates % inhibition >80%) | E (E indicates negative modulation <20%)
CCNC(=O)n1cc2[nH]cc3c(=O)n(-c4ccc(F)cc4)nc-3c2c1 [Compound 13f, N-Ethyl-2-(4-fluorophenyl)-3-oxo-2,3-dihydropyrazolo[3,4-d]pyrrolo[3,4-b]pyridine-7(5H)-carboxamide] | A (A indicates % inhibition >80%) | A (A indicates % inhibition >80%) | D (D indicates negative modulation >20%)
CCNC(=O)n1cc2[nH]cc3c(=O)n(-c4ccc(F)cc4F)nc-3c2c1 [Compound 13g, 2-(2,4-Difluorophenyl)-N-ethyl-3-oxo-2,3-dihydropyrazolo[3,4-d]pyrrolo[3,4-b]pyridine-7(5H)-carboxamide] | B (B indicates % inhibition <80% and >20%) | A (A indicates % inhibition >80%) | D (D indicates negative modulation >20%)
CCCCNC(=O)n1cc2[nH]cc3c(=O)n(-c4ccccc4)nc-3c2c1 [Compound 13i, N-Butyl-3-oxo-2-phenyl-2,3-dihydropyrazolo[3,4-d]pyrrolo[3,4-b]pyridine-7(5H)-carboxamide] | A (A indicates % inhibition >80%) | A (A indicates % inhibition >80%) | E (E indicates negative modulation <20%)
CCNC(=O)n1cc2[nH]cc3c(=O)n(-c4ccccc4)nc-3c2n1 [Compound 21a] | B (B indicates % inhibition <80% and >20%) | C (C indicates % inhibition <20%) | D (D indicates negative modulation >20%)

Now from value to compound, other results behind:

% Inhibition at 0.1 μM [1] | % Inhibition at 10 μM [1] | SMILES | EP Modulation (GABAA receptors)
A (A indicates % inhibition >80%) | A (A indicates % inhibition >80%) | CNC(=O)n1cc2[nH]cc3c(=O)n(-c4ccccc4)nc-3c2c1 [Compound 13a, N-Methyl-3-oxo-2-phenyl-2,3-dihydropyrazolo[3,4-d]pyrrolo[3,4-b]pyridine-7(5H)-carboxamide] | D (D indicates negative modulation >20%)
A (A indicates % inhibition >80%) | A (A indicates % inhibition >80%) | CCCNC(=O)n1cc2[nH]cc3c(=O)n(-c4ccccc4)nc-3c2c1 [Compound 13c, 3-Oxo-2-phenyl-N-propyl-2,3-dihydropyrazolo[3,4-d]pyrrolo[3,4-b]pyridine-7(5H)-carboxamide] | D (D indicates negative modulation >20%)

Reference: patent publication US9012470B2 (Dart NeuroScience (Cayman) Ltd., priority 2010, dated 2015)
